Each block holds one compound with its values, some of them ahead of it.
Legend:
[1] = target: T1, T7 RNA polymerase (Escherichia phage T7, UniProt P00573); assay: Transcription of ribo-UNA from linearized DNA template; type: biochemical; details: substituted for ATP and UTP; 37° C., one hour
T1 construct: purchased Ambion Inc
Procedure: The ability to transcribe longer ribo-UNAs (rUNAs) using T7 RNA polymerase and the corresponding modified ribonucleotide triphosphates was tested using a linear double-stranded DNA template. A plasmid DNA containing the human retinoblastoma gene under control of a T7 RNA polymerase promoter was digested with the restriction endonucleases XbaI and AflII. The resulting linearized plasmid templates for a 138 nucleotide transcript when transcribed with T7 RNA polymerase (see FIG. 34A).
The transcription reactions (20 uL) contained 1× transcription buffer (Ambion Inc.), 0.5 mM GTP, 0.5 mM ATP (or 2-aminoadenosine-5′-triphosphate (rD)), 0.5 mM UTP (or 2-thiouridine-5′-triphosphate (rS), 1.6 uM α-^32P-CTP, 1 ug of the linearized DNA template and 10 units of T7 RNA polymerase (Ambion Inc.). The reaction mixtures were incubated at 37° C. for one hour and then separated by electrophoresis on a 6%/7M urea polyacrylamide gel.

[2] = 28-mer duplexes; cited from earlier work
[3] = target: T2, SuperScript II MMLV reverse transcriptase (Moloney murine leukemia virus, UniProt P03355, D1183G/D1242N/E1221Q); assay: Synthesis of full-length cUNA from polyadenylated T7-RNA transcripts; type: biochemical; details: additional substitution for GTP; relative to natural dNTP or D/S substituted reactions
T2 construct: 200 units of SuperScript II MMLV reverse transcriptase (InVitrogen); purchased InVitrogen
Procedure: The ability to synthesize full-length UNA copies (cUNAs) of polyadenylated RNA was tested using various reverse transcriptase enzymes and three T7-RNA transcripts having 3′-polyadenylated tails as templates. The three T7-RNA transcripts correspond to the genes for the penicillin binding protein from E. coli (pBp-1), the chlorophyll A/B binding protein from Arabidopsis thaliana (Cab), and nucleotides 5-335 of the Hepatitis C virus (HCV) genome (See FIG. 32 (panel A)). The expected length of the cUNAs generated from the three polyadenylated RNAs using an oligo-dT primer is 1194, 729 and 360 nucleotides respectively (see FIG. 32 (panel B)).
The reverse transcriptase reactions (15.0 uL) were performed in 0.65 mL pre-siliconized microfuge tubes containing the following components: 50 mM Tris-Cl (pH 8.3), 75 mM KCl, 3.0 mM MgCl2, 4.5 mM DTT, 500 uM dGTP (or dITP), 500 uM dATP (or 2-amino-2′-deoxyadenosine-5′-triphosphate), 500 uM TTP (or 2-thiothymidine-5′-triphosphate), 100 uM dCTP, 0.33 uCi of ^32P-α-dCTP, 20 nM each T7-RNA template, 1.0 uM T16N2 primer, 1.0 unit of RNase Out (In Vitrogen), and 200 units of SuperScript II MMLV reverse transcriptase (InVitrogen). The buffer components, RNA template and primer were annealed by heating to 75° C. for 4 minutes and quickly cooled to room temperature. […]

[4] = target: T3, Bst DNA polymerase (Geobacillus stearothermophilus, UniProt P52026); assay: Single nucleotide extension of 6-mer primers at varying dNTP concentration; type: biochemical; details: for extension efficiency of 6-mer primer compared with natural dNTP: dNTP 0.5 microM to 130 microM, 45° C., 8 hours
T3 construct: purchased New England Biolabs
T3 sequence (P52026 290-876 limits assumed): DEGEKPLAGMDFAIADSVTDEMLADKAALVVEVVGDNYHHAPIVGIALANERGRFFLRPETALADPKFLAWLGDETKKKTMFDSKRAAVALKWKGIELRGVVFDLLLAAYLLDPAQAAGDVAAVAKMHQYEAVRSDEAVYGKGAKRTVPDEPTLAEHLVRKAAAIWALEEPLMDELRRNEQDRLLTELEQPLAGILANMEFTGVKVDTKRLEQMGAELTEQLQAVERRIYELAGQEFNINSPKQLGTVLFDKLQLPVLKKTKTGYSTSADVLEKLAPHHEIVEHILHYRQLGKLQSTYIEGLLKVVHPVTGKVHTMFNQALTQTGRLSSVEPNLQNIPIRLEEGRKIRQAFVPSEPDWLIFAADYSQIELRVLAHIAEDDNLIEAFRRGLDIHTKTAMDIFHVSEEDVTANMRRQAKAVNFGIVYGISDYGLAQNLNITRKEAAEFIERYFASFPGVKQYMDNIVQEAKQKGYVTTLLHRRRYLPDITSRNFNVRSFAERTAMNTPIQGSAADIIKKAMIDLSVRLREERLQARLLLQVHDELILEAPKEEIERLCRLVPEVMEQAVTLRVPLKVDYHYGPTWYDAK
Procedure: To further assess the incorporation efficiency of the modified nucleotides by Bst DNA polymerase, the efficiency for a single nucleotide extension reaction was determined using two 6-mer primers in the presence of varying concentrations of dATP, 2-amino-2′-deoxyadenosine-5′-triphosphate, dTTP or 2-thiothymidine-5′-triphosphate (illustrated as 2-thioTTP) (FIGS. 3A and 4A). For this study, the reaction mixtures contained: 20 mM Tris-Cl (pH 8.8 @ 25° C.), 10 mM KCl, 10 mM (NH4)2SO4, 2 mM MgSO4, 0.1% Triton-X100, 500 nanoM 6-mer primer, 20 nanoM 30-mer DNA template, 0.8 units/microL (˜70 nanoM) Bst DNA polymerase and a dNTP concentration ranging from 0.5 microM to 130 microM. The reaction mixtures were incubated at 45° C. for 8 hours and separated by electrophoresis on 20% denaturing (7M urea) polyacrylamide gels.

[5] = target: T4, Bst DNA polymerase (Geobacillus stearothermophilus, UniProt P52026); assay: Incorporation specificity of 2-thio-2′-deoxycytidine triphosphate opposite template G or I; type: biochemical; details: 5.0 uM dNTP, 45° C.; for primer extension rate: template I
T4 sequence (P52026 1-876): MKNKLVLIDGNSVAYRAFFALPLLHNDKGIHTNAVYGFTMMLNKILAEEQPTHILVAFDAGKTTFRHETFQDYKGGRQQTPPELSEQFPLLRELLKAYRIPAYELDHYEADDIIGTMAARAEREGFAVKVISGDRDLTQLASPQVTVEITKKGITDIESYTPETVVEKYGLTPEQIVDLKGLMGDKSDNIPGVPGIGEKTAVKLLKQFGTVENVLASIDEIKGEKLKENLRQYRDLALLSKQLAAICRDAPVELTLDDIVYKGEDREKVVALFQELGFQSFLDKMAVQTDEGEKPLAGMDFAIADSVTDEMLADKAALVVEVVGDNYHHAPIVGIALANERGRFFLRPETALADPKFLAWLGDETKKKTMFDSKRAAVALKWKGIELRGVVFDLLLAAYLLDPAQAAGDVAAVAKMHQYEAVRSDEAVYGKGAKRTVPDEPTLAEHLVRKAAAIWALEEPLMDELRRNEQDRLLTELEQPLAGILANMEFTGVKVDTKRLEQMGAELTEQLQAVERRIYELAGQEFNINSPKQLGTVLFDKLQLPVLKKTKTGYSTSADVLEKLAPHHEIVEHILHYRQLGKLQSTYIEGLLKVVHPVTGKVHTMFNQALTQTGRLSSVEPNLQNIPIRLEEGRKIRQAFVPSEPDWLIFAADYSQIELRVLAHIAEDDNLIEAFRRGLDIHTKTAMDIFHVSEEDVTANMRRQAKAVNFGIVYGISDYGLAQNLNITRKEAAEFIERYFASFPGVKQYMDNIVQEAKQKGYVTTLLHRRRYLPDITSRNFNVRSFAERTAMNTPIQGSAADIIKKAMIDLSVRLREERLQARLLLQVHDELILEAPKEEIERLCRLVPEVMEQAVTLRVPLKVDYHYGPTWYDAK
Procedure: The reactions were incubated at 45° C. At 5, 10, 20 and 40 minutes, 7.0 uL aliquots were removed and the reaction mixture was separated by electrophoresis on 20%/7M urea polyacrylamide gels. The products were visualized by phosphorimaging.

T1 sequence (P00573 whole entry): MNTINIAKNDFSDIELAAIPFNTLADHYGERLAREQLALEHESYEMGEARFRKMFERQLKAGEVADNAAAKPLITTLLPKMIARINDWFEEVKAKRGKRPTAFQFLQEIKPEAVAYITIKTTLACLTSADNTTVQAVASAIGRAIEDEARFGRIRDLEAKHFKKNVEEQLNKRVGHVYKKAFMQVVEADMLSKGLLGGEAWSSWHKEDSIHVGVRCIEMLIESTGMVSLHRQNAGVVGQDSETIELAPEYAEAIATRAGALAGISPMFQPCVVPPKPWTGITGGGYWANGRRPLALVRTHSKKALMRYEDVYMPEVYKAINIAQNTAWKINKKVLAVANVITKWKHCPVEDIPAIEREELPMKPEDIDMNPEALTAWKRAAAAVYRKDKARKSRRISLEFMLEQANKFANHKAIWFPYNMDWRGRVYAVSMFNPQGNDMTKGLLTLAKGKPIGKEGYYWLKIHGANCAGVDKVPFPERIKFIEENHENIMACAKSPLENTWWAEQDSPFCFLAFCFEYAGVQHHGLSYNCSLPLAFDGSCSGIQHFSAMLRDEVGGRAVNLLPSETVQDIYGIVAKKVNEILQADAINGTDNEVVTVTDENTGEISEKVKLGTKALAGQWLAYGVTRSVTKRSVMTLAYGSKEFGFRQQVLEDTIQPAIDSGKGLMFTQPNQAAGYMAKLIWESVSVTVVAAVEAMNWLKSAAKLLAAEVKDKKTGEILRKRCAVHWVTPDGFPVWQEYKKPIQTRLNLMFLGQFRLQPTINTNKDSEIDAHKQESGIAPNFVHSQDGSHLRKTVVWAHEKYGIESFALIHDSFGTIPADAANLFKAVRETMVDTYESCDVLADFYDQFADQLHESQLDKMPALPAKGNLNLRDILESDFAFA

SMILES: Nc1nc(N)c2ncn([C@@H]3O[C@H](COP(=O)(O)OP(=O)(O)OP(=O)(O)O)[C@@H](O)[C@H]3O)c2n1 [2-aminoadenosine-5′-triphosphate]
full-length product (138 nucleotide transcript) [1]: full-length product is generated

SMILES: c1cc2[nH]cncc-2n1 [P, pyrrolo-pyrimidine]
change of duplex Tm per modified base pair [2]: −0.5 °C

SMILES: O=P(O)(O)OP(=O)(O)OP(=O)(O)OC[C@H]1O[C@@H](n2cnc3c(O)ncnc32)C[C@@H]1O [ITP, 2′-deoxyinosine-5′-triphosphate]
reduction of yield of full-length product [3]: about 2 fold

SMILES: O=c1ccn([C@@H]2O[C@H](COP(=O)(O)OP(=O)(O)OP(=O)(O)O)[C@@H](O)[C@H]2O)c(=S)[nH]1 [2-thiouridine-5′-triphosphate]
full-length product (138 nucleotide transcript) [1]: full-length product is generated

SMILES: Cc1cn([C@H]2C[C@H](O)[C@@H](COP(=O)(O)OP(=O)(O)OP(=O)(O)O)O2)c(=O)[nH]c1=O [dTTP, 2′-deoxythymidine-5′-triphosphate, reference compound]
EC50 [4]: ~4 µM | extension efficiency of 6-mer primer compared with natural dNTP [4]: very similar

SMILES: Nc1ccn([C@H]2C[C@H](O)[C@@H](COP(=O)(O)OP(=O)(O)OP(=O)(O)O)O2)c(=S)n1 [2-thio-2′-deoxycytidine triphosphate, 2-thio-2′-deoxycytidine-5′-triphosphate]
primer extension rate [5]: equivalent

SMILES: Nc1ccn([C@H]2C[C@H](O)[C@@H](COP(=O)(O)OP(=O)(O)OP(=O)(O)O)O2)c(=O)n1 [dCTP, 2′-deoxycytidine-5′-triphosphate, reference compound]
conversion of the 12-mer primer to the 13-mer extension product ([5]; template G): efficient conversion | primer extension rate [5]: equivalent

extension efficiency of 6-mer primer compared with natural dNTP [4]: approximately equal efficiencies
SMILES: Nc1ncnc2c1ncn2[C@H]1C[C@H](O)[C@@H](COP(=O)(O)OP(=O)(O)OP(=O)(O)O)O1 [dATP, 2′-deoxyadenosine-5′-triphosphate, reference compound]

SMILES: OC[C@H]1O[C@@H](n2cnc3c(O)ncnc32)[C@H](O)[C@@H]1O [I, inosine]
change of duplex Tm per modified base pair [2]: −1.9 °C

Reference: patent publication US20040086880A1, “Method of producing nucleic acid molecules with reduced secondary structure” (priority 1999, published 2004)
